Measurements published in patent US20120277265A1, “NOVEL POLYQUINOLINE DERIVATIVES AND THE THERAPEUTIC USE THEREOF” (CENTRE NATIONAL DE LA RECHERCHE SCIENTIFIQUE (C.N.R.S.), priority 2005, published 2012).

Columns and labels:
[1] = Competition reaction between ligand (Ls), ZnCl2 and competing chelator (Lc), UV-visible; affinity constants; type: binding; details: for % MLs: Zn(II), EDTA as Lc, 1/1/1 at 15 μM
Protocol: An organic solvent (CH3OH, dioxane or DMSO) was added in order to achieve good solubility of all the ligands and metal complexes in the concentrations used in these experiments.
As the concentration [MLs]=x % of C is measured on the UV-visible spectra, the concentrations [Ls]=(1−x) % of C, [MLc]=(1−x) % of C and [Lc]=x % of C can be deduced therefrom and:
In these conditions, [MLs]=[MLc]; [MLs]+[Lc]=Y, y≧50 and:
When log Ks 6, these equations are not used since the percentages of metal ion which is free in the solution or chelated by the solvent or the buffer are not negligible.

[2] = Determination of log D7.4 (1-octanol / Tris-HCl buffer); type: physicochemical; details: 1-octanol / 20 mM Tris-HCl buffer containing 150 mM NaCl (pH = 7.4) (1/1, v/v)
Method in brief: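 Ligand partitioned between 1-octanol and 20 mM Tris-HCl pH 7.4 with 150 mM NaCl: vortexed 3 min at ambient temperature, centrifuged, each phase quantified by UV-visible spectrophotometry. log D7.4 is log of octanol/buffer concentration ratio, measured three times.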

[3] = UV-visible spectrophotometric titration with ZnCl2 (metal/ligand stoichiometry); type: binding; details: 15 μM ligand; Tris-HCl buffer pH 7.4/organic solvent, per ligand as in Table 3 column Solvent
Protocol: (§1) An organic solvent (CH3OH, dioxane or DMSO) was added in order to achieve good solubility of the ligands and metal complexes in the concentrations used in these experiments. Exact proportions of the organic solvent/buffer mixture are specified for each UV-visible characterisation of the different ligands or metal complexes.
(§2) Aliquot portions of concentrated CuCl2 or ZnCl2 solutions (M) are added to a 15 μM ligand solution so as to induce only negligible variations in volume. After each addition, changes in absorption spectra are observed immediately and are consistent between two additions, which corresponds to a rapid complexing process. The exact absorption values relating to each ligand and the copper(II) or zinc(II) complexes thereof are detailed hereinafter in the Experimental part (in the Synthesis part for ligands and hereinafter for the metal complexes).
(§3) The stoichiometry of the different ligands (L) for Cu(II) or ZN(II) have therefore been determined spectrophotometrically by metal ion titration. In this example, for an M/L ratio increasing from 0 to 1, π→π* with transition, centred at 251 nm for the free ligand, is shifted to a lower energy with a concomitant appearance of an absorption band in the visible region of the spectrum (λmax to 383 nm), which is probably the result of an MLCT transition. For greater M/L ratios, no additional change in the UV-visible absorption spectra is observed.

[4] = Competition reaction between ligand (Ls), CuCl2 and competing chelator (Lc), UV-visible; affinity constants; details: for % MLs: Cu(II), EDTA as Lc, 1/1/1 at 15 μM; for number of Lc equivalents making it possible to form 50% of CuLs, Lc = EDTA: mixture of Ls (15 μM, 1 equivalent) and CuCl2 (1/1, mol/mol)
Protocol: An organic solvent (CH3OH, dioxane or DMSO) was added in order to achieve good solubility of all the ligands and metal complexes in the concentrations used in these experiments. Monitoring has shown that all the ligands and metal complexes examined yield results corresponding to the Beer-Lambert Law in the experimental conditions used.
Lc competing chelators were selected to provide a range of stability constants for the metal ion M presenting intervals of approximately one or two log units, as well as to make it possible for each competition experiment to quantify one of the Ls, MLs, Lcc or MLc species with a UV-vis spectrum wavelength without contaminating the three other species (FIG. 7). […] As the concentration [MLs]=x % of C is measured on the UV-visible spectra, the concentrations [Ls]=(1−x) % of C, [MLc]=(1−x) % of C and [Lc]=x % of C can be deduced therefrom and:

Aβ1-42 = target: T1, Aβ1-42 (Homo sapiens, UniProt P05067); experiment: Inhibition of the precipitation of Aβ1-42 by the addition of ligand (Micro BCA assay of soluble/aggregated peptide); type: biochemical; details: Aβ1-42 5 μM, pH 7.4; for CuCl2 % soluble Aβ: 20 μM CuCl2, 1 h 37° C. then 1 h with 200 μM ligand; for FeCl3 % soluble Aβ: 20 μM FeCl3, 1 h 37° C. then 1 h with 200 μM ligand; for ZnCl2 % soluble Aβ: 20 μM ZnCl2, 1 h 37° C. then 1 h with 200 μM ligand; for without metal % soluble Aβ: no metal salt, 1 h 37° C. then 1 h with 200 μM ligand
T1 construct: The β-amyloid peptide Aβ1-42 (Aβ1-42) was synthesised, purified (to a purity greater than 95%); made in house; host or cells: chemical peptide synthesis (no expression host)
Method in brief: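 Aβ1-42 (5 μM) pre-aggregated 1 h at 37 °C with stirring in 20 mM Tris-HCl/150 mM NaCl pH 7.4, with or without CuCl2, ZnCl2 or FeCl3 (20 μM). Ligand (200 μM, DMSO) added, 1 further hour at 37 °C; after centrifugation, peptide in supernatant and pellet quantified by Micro BCA against BSA standards.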

[5] = UV-visible spectrophotometric titration with CuCl2 (metal/ligand stoichiometry); type: binding; details: 15 μM ligand; Tris-HCl buffer pH 7.4/organic solvent, per ligand as in Table 3 column Solvent
Protocol: as §1, §2, §3

[6] = Ls/ZnCl2/Lc 1/1/1 at 15 μM, solvent per ligand as in Table 3
[7] = Ls/CuCl2/Lc 1/1/1 at 15 μM, solvent per ligand as in Table 3

T1 sequence (P05067 672-713): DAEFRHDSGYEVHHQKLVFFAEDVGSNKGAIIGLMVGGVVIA

SMILES	percentage of ZnLs species at equilibrium, competing ligand EDTA [1, 6] [%]	logD at 3 min [2]	Complex observed by titration with Zn^II (observed L/Zn(II) stoichiometry) [3]	percentage of the CuLs species at equilibrium, competing ligand EDDA [4, 7] [%]	percentage of the CuLs species at equilibrium, competing ligand EDTA [4, 7] [%]	percentage of the CuLs species at equilibrium, competing ligand HIDA [4, 7] [%]	number of Lc equivalents making it possible to form 50% of CuLs, Lc = EDTA [4] [eq]	CuCl2 % soluble Aβ (Aβ1-42) [%]	FeCl3 % soluble Aβ (Aβ1-42) [%]	ZnCl2 % soluble Aβ (Aβ1-42) [%]	without metal % soluble Aβ (Aβ1-42) [%]	Complex observed by titration with Cu^II (observed L/Cu(II) stoichiometry) [5]	log D7.4 [2]	other results
CC(C)(c1ccc2cccc(O)c2n1)c1ccc2cccc(O)c2n1 [Compound 3, 2,2′-(2,2-propanediyl)-bis(8-hydroxyquinoline)]	30	4.4 ± 0.1	LZn^II(1/1)	100	50	100	1	47 ± 3	60	59	56			percentage of ZnLs species at equilibrium, competing ligand DTPA [1, 6]: 20%; percentage of ZnLs species at equilibrium, competing ligand EGTA [1, 6]: 100%; percentage of ZnLs species at equilibrium, competing ligand NTA [1, 6]: 100%; percentage of ZnLs species at equilibrium, competing ligand Trien [1, 6]: 100%; % MLs ([1]; Buffer/CH3OH (1/1)): 30%; % MLs ([1]; Buffer/DMSO (2/8)): 35%; % MLs ([1]; Buffer/dioxane (2/8)): 33%; % MLs ([1]; CH3OH): 40%; number of Lc equivalents making it possible to form 50% of ZnLs, Lc = EDTA ([1]; mixture of Ls (15 μM, 1 equivalent) and ZnCl2 (1/1, mol/mol)): 0.7 eq; % MLs ([4]; Buffer/CH3OH (1/1)): 50%; % MLs ([4]; Buffer/DMSO (2/8)): 55%; % MLs ([4]; Buffer/dioxane (1/1)): 45%; percentage of the CuLs species at equilibrium, competing ligand CTDA [4, 7]: 15%; percentage of the CuLs species at equilibrium, competing ligand EDA [4, 7]: 100%; percentage of the CuLs species at equilibrium, competing ligand Tetren [4, 7]: 0%; percentage of the CuLs species at equilibrium, competing ligand Trien [4, 7]: 30%; percentage of the CuLs species at equilibrium, competing ligand biPy [4, 7]: 100%
CC(C)(c1ccc2c(Cl)ccc(O)c2n1)c1ccc2c(Cl)ccc(O)c2n1 [Compound 4, 2,2′-(2,2-Propanediyl)-bis(5-chloro-8-hydroxyquinoline)]	20	4.9 ± 0.1	LZn^II(1/1)	90	40	100	0.65	30	45	49	55	Cu^II(1/1)		
Oc1cccc2ccc(C(F)(F)c3ccc4cccc(O)c4n3)nc12 [Compound 5, 2,2′-(Difluoromethanediyl)-bis(8-hydroxyquinoline)]	55	3.8 ± 0.1	LZn^II(1/1)		45			51 ± 1	52	50	60	LCu^II(1/1)		
O=C(c1ccc2cccc(O)c2n1)c1ccc2cccc(O)c2n1 [Compound 6, Bis(8-hydroxy-2-quinoline)methanone]	75		LZn^II(1/1)		75			58 ± 3	51	54	56	LCu^II(1/1)	3.9 ± 0.1	
c1cnc2c(Nc3cccc4cccnc34)cccc2c1 [Compound 12, Bis(8-quinoline)amine]			LZn^II(1/1)		55			69 ± 2	59	52	69	LCu^II(1/1)	3.5 ± 0.1	Log KZn^II ([1]; affinity constant at pH = 7.4, solvent per ligand as in Table 3 column Solvent, Equation 8 (a) or 7 (b)): ≈6
